Assay results: PubChem BioAssay (NCI)
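Method: 48-hour compound exposure of cells in 96-well plates, five concentrations, linear interpolation of endpoints. Abbreviation: GI50, concentration required for 50% inhibition of growth. Definition used: TGI = concentration required for complete inhibition of growth.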 Where a SMILES comes first, the peptide text is derived from it. [ ]: non-standard residue; d: D form. The star is where a group is joined. ξ: configuration not given here. NMeF = CN[C@@H](Cc1ccccc1)C(=O)O; NMeV = CN[C@H](C(=O)O)C(C)C; ξNMeV = CNC(C(=O)O)C(C)C; Boc = CC(C)(C)OC(=O)*; OBn = c1ccc(CO*)cc1

Assays:
Experiment in all cases: DTP human tumour cell line panel, 48 h
KM12 colon = tested on: KM12 colon
SNB-19 CNS = tested on: SNB-19 CNS
ACHN renal = tested on: ACHN renal
EKVX NSCLC = tested on: EKVX NSCLC
COLO 205 colon = tested on: COLO 205 colon
HT29 colon = tested on: HT29 colon
SF-268 CNS = tested on: SF-268 CNS
UACC-62 melanoma = tested on: UACC-62 melanoma
T-47D breast = tested on: T-47D breast
MDA-MB-435 = tested on: MDA-MB-435

Row | SMILES | TGI (KM12 colon) | TGI (SNB-19 CNS) | TGI (ACHN renal) | TGI (EKVX NSCLC) | TGI (COLO 205 colon) | TGI (HT29 colon) | TGI (SF-268 CNS) | TGI (UACC-62 melanoma) | TGI (T-47D breast) | TGI (MDA-MB-435) | GI50 (SNB-19 CNS) | GI50 (EKVX NSCLC) | GI50 (COLO 205 colon) | GI50 (KM12 colon) | GI50 (HT29 colon) | GI50 (UACC-62 melanoma) | GI50 (ACHN renal) | GI50 (MDA-MB-435) | GI50 (SF-268 CNS)
1 | Cc1ccc(NC(=O)C2C3CCC(O3)C2C(=O)O)cc1 (stereo not given) | > 100 µM | > 100 µM | > 100 µM | > 100 µM | > 59.8 µM | > 64.2 µM | > 73.2 µM | > 100 µM |  |  |  |  |  |  |  |  |  |  | 
2 | COc1ccc(C2=NNC(=O)c3ccccc3N2c2nc(-c3cccs3)nc3cc(OC)c(OC)cc23)cc1 | > 100 µM | > 100 µM | 13.3 µM | > 100 µM | > 100 µM |  | > 100 µM | 5.79 µM | 17.6 µM | 13.6 µM |  |  |  |  |  |  |  |  | 
3 | Nc1ccn(C2CCC(COP(=O)(O)OCC(O)COP(=O)(O)OCC3OC(n4cc(F)c(=O)[nH]c4=O)CC3O)O2)c(=O)n1 (stereo not given) | > 100 µM | > 100 µM | > 100 µM | > 100 µM | > 100 µM | > 100 µM | > 100 µM |  | > 100 µM | > 100 µM |  |  |  |  |  |  |  |  | 
4 | CN(C)CCC[N+]1=Nc2cccc3cccc(c23)N1 | > 100 µM | > 100 µM | > 100 µM | > 100 µM |  | > 100 µM | > 100 µM | > 100 µM |  |  |  |  |  |  |  |  |  |  | 
5 | O=C1CN(c2cccc(C(F)(F)F)c2)C(=O)CN1CCN1CC(=O)N(c2cccc(C(F)(F)F)c2)CC1=O | > 100 µM | > 100 µM | > 100 µM | > 100 µM | > 100 µM | > 100 µM | > 100 µM |  | > 100 µM | > 100 µM |  |  |  |  |  |  |  |  | 
6 | Cn1c(=O)c2[nH]c(SC/C(=N/O)c3ccc(Br)cc3)nc2n(C)c1=O |  | 8.35 µM |  | > 100 µM | > 100 µM |  |  |  |  |  | 2.94 µM | 2.76 µM | > 100 µM |  |  |  |  |  | 
7 | C=CCOC(=O)Cn1ccc(=O)[nH]c1=O | > 100 µM | > 100 µM | > 100 µM | > 100 µM | > 100 µM | > 100 µM | > 100 µM | > 100 µM | > 100 µM |  |  |  |  |  |  |  |  |  | 
8 | COc1cc(S(=O)(=O)Nc2ccc(-c3csc(N4C(=O)CSC4c4ccccc4O)n3)cc2)ccc1Cl (stereo not given) | > 100 µM | > 100 µM | > 100 µM | 85.5 µM | 61.1 µM | > 100 µM | > 100 µM | > 100 µM |  | > 100 µM |  |  |  |  |  |  |  |  | 
9 | CC(=O)NC(C)(C)C1CCC(C)CC1 (stereo not given) | > 100 µM | > 100 µM | > 100 µM | > 100 µM | > 100 µM | > 100 µM | > 100 µM | > 100 µM |  | > 100 µM |  |  |  |  |  |  |  |  | 
10 | CC(=O)OCC1OC(N=[N+]=[N-])C(OC(C)=O)C(OC(C)=O)C1OC1OC(COC(C)=O)C(OC(C)=O)C(OC(C)=O)C1OC(C)=O (stereo not given) | > 100 µM | > 100 µM | > 100 µM | > 100 µM | > 100 µM | > 100 µM | > 100 µM | > 100 µM |  |  |  |  |  |  |  |  |  |  | 
11 | CC#COS(=O)(=O)c1ccc(C)cc1 | > 100 µM | > 100 µM | > 100 µM | > 100 µM | > 100 µM | > 100 µM | > 100 µM | > 100 µM |  |  |  |  |  |  |  |  |  |  | 
12 | COc1cc(O)c(Cc2ccccc2O)c(O)c1C(=O)CCc1ccccc1 | 25.3 µM | 26.4 µM |  | 22.5 µM | 16.5 µM | 33.4 µM | 33.5 µM | 19.1 µM |  |  |  |  |  |  |  |  |  |  | 
13 | O=C1C(=C([O-])c2ccccc2)C(=O)c2ccccc21.O=C1C(=C([O-])c2ccccc2)C(=O)c2ccccc21.[Ni+2] | > 100 µM | > 100 µM |  | > 100 µM |  | > 100 µM |  | > 100 µM |  |  | 58.8 µM | 44.4 µM |  | 84.6 µM | 77 µM | 36.8 µM |  |  | 
14 | CC(C)C(C(=O)N(C)[C@H](C(=O)N1CCC[C@H]1C(=O)N(C)[C@@H](Cc1ccccc1)C(=O)OCc1ccccc1)C(C)C)N(C)C(=O)[C@@H](NC(=O)OC(C)(C)C)C(C)C (stereo not given in full) (Boc-V[ξNMeV][NMeV]P[NMeF]-OBn) |  | > 31.6 µM | > 100 µM | > 31.6 µM | 35.2 µM | > 31.6 µM | > 31.6 µM | > 31.6 µM |  |  |  |  |  |  |  |  |  |  | 
15 | CCCCCCCCCCCCOC1C(COCCN2CCCCC2)OC2OC(C)(C)OC21 (stereo not given) | 3.06 µM | 8.07 µM | 4.69 µM |  | 3.03 µM | 2.53 µM | 6.44 µM | 3.27 µM | 4.01 µM | 3.17 µM |  |  |  |  |  |  |  |  | 
16 | COc1ccc([C@H]2CC3C(=O)N(c4ccc(OC)cc4)C(=O)C3c3[nH]c4ccccc4c32)cc1 (stereo not given in full) | > 100 µM | > 100 µM | > 100 µM | > 100 µM | > 100 µM |  | > 100 µM | > 100 µM |  |  |  |  |  |  |  |  |  |  | 
17 | COc1ccc2c3/c(=C\c4ccc(N(C)C)cc4)c4ccccc4n3[n+](C)c2c1 | 1.24 µM |  |  | 4.16 µM | 0.757 µM |  | 3.03 µM | 0.224 µM |  | 1.83 µM |  | 0.11 µM | 0.029 µM | 0.255 µM | 0.123 µM | < 0.0275 µM | 0.404 µM | 0.484 µM | 0.437 µM
